Measurements as given in patent US20060036073A1, “Neurotrophic and neuroprotective peptides” (priority 2002, published 2006).
Where a SMILES comes first, the peptide text is derived from it. Where no end group is shown, it is not given here.

Assays:
[1] = tested on: cortical neurons that are obtained from chicken embryos; experiment: Summary of the screening over all neuroprotection assays; type: cell-based; details: for Active in: (number of assays): Table 2 summary
Description: Since the targets of the therapy with the peptides presented according to the invention are various neurodegenerative diseases, different model systems for detecting the biological activity of the peptides according to the invention in the case of neurodegenerative diseases were used. Later, the individually used model systems and the results thus achieved are described. […] That is to say, the implementation of the tests was carried out on different days with different cell preparations and by different individuals. For some peptides, two numbers were issued (#1=#23 or #6=#35 or #7=#43), but the results with these peptides were only shown once. […] With some other substances, there were problems in the production, and thus only small amounts were available, and it was not possible to test the substances in all the assays (#12, 14, 17, 35 and #48). […] As could be seen from the figures, the standard deviations, i.e., the fluctuations between the independent experiments, are to some extent quite large. These fluctuations can be attributed to stability problems. These peptides are the peptides that are preferred within the scope of the invention.

[2] = tested on: amyloid-beta peptides (β-amyloid 25-35) / nerve cell cultures; experiment: Amyloid-beta aggregation assay (peptide added to fresh amyloid-beta solution, effect on nerve cell cultures); type: cell-based, chicken; details: for AβP reagg. (diff vs C): difference vs control, only one round of testing
Description: Beta-Amyloid peptides represent, in aggregated form, a potent neurotoxin whose addition to the nerve cell cultures results in a quick and progressive cell death. Since beta-amyloid peptides constitute an essential role in the pathogenesis of Alzheimer's disease, this model can be considered especially relevant.
This biological test is a process for testing anti-aggregatory substance potential that is specially developed for this project. The newly synthesized peptides are added directly to a fresh solution of amyloid-beta peptides to prevent the formation of neurotoxic aggregates. The effect that aggregates that still develop have on growth and survival of nerve cell cultures is the measurement parameter.

[3] = tested on: cortical neurons that are obtained from chicken embryos; experiment: Chronic disruption of the calcium metabolism by ionomycin, neuron viability by MTT; type: cell-based; details: ionomycin 10 μM, 24 hours
Description: It is common to these biological test systems that cortical neurons that are obtained from chicken embryos are cultivated in culture plates for eight days and then are exposed to a specific noxa (Pettmann et al., Nature 281 (5730): 378-80 [1979]).
To this end, a one-day-old, fertilized hen's egg is incubated for eight days at +12 +/− 0.1° C. and 80 +/− 5% atmospheric humidity. On the embryonal day 0, the eggs are transferred into an incubator and incubated up to the embryonal day 8 at 38 +/− 0.5° C. and 55 +/− 5%. After the brains are removed, the cortices are isolated, homogenized, and neurons are taken into primary culture (culture conditions: Dulbecco's Modified Eagle's Medium, 20% v/v fetal calf serum, 0.01% gentamicin, 1 g/l of glucose, 2 mmol of L-glutamine, +37° C., 5% CO2 and 95% atmospheric humidity). […] After the end of the specified stress period, the proportion of the still living neurons is determined with a metabolic colorimetric assay (the reaction of the yellow chromophore MTT to a blue formazan product is carried out only by living cells).
It is expected that in the case of various neurodegenerative diseases, chronic calcium overloading occurs because of metabolic malfunctions, which ultimately produces cell death via the activation of various enzyme systems. […]

[4] = tested on: cortical neurons that are obtained from chicken embryos; experiment: Serum-withdrawal assay (2% assay), neuron viability by MTT; type: cell-based
Description: This simulates the disruptions in the stimulation of neurons with nerve growth factors that are assumed to be one of the possible causes of neurodegenerative diseases. The effectiveness of the new peptides in preventing cell death was measured.

CSCC[C@H](NC(=O)[C@H](Cc1ccccc1)NC(=O)[C@@H](NC(=O)[C@@H](N)CC(=O)O)C(C)C)C(=O)O [BH#33, DVFM] (H-DVFM-OH; N-terminus and C-terminus assumed)
effectiveness across the screening assays (in words) [1]: effective in only one screening assay

CC(C)[C@H](NC(=O)[C@@H](N)CC(=O)O)C(=O)N[C@@H](Cc1ccccc1)C(=O)O [BH#34, DVF] (H-Asp-Val-Phe-OH)
AβP reagg. (diff vs C) [2]: 19%
increase in cell vitality to [3]: about 150%

Ac-SMAKEGV [BH#8, SMAKEGV]
increase in cell vitality to [3]: about 150%
action in models of pathological processes of neurodegenerative diseases (in words) [1]: excellent action
Active in: (number of assays) [1]: 5 of 7

DVFMK [BH#32]
effectiveness across the screening assays (in words) [1]: not effective in any assay

DVFMKGL [BH#30, DVFMKGL]
effectiveness across the screening assays (in words) [1]: effective in only one screening assay

DVFMKGLSM [BH#28, DVFMKGLSM]
Active in: (number of assays) [1]: 4 of 7

DVFMKGLSMA [BH#27, DVFMKGLSMA]
Active in: (number of assays) [1]: 4 of 7

DVFMKGLSMAK [BH#26]
increase of neuronal vitality by ([2]; β-amyloid 25-35, peptide added to fresh amyloid solution): 74%
Active in: (number of assays) [1]: 2 of 7

GLS [BH#41]
effectiveness across the screening assays (in words) [1]: not effective in any assay

GLSMA [BH#39]
effectiveness across the screening assays (in words) [1]: effective in only one screening assay

GLSMAKE [BH#37, GLSMAKE]
effects over the effects of the control (=100%) [4]: 150%

LSMAK [BH#46, LSMAK]
action in models of pathological processes of neurodegenerative diseases (in words) [1]: excellent action
Active in: (number of assays) [1]: 2 of 7

LSMAKE [BH#45, LSMAKE]
effectiveness across the screening assays (in words) [1]: effective in only one screening assay

LSMAKEGV [BH#7, LSMAKEGV]
effects over the effects of the control (=100%) [4]: approximately 450%

MDVFMK [BH#20, MDVFMK]
effectiveness across the screening assays (in words) [1]: effective in only one screening assay

MDVFMKG [BH#19, MDVFMKG]
AβP reagg. (diff vs C) [2]: 20%

MDVFMKGL [BH#18]
effectiveness across the screening assays (in words) [1]: not effective in any assay

MDVFMKGLSM [BH#16, MDVFMKGLSM]
effects over the effects of the control (=100%) [4]: 150%
Active in: (number of assays) [1]: 4 of 7
